# ChEMBL document CHEMBL1154899, “Synthesis and biological evaluation of caffeic acid 3,4-dihydroxyphenethyl ester” (J Nat Prod, 2010)
# Experiments:
# Format in all cases: functional
# MOLT-4 = test: Antiproliferative activity against human MOLT4 cells assessed as cell growth at 0.5 uM by SRB assay; settings: read-out: Activity
# RXF 393 = test: Antiproliferative activity against human RXF393 cells assessed as cell growth at 5 uM by SRB assay; settings: read-out: Activity
# OVCAR-3 [1] = test: Antiproliferative activity against human OVCAR-3 cells by SRB assay
# CCRF-CEM = test: Antiproliferative activity against human CCRF-CEM cells by SRB assay
# EKVX [2] = test: Antiproliferative activity against human EKVX cells assessed as cell growth at 5 uM by SRB assay; settings: read-out: Activity
# A498 [3] = test: Antiproliferative activity against human A498 cells by SRB assay
# NCI-H522 = test: Antiproliferative activity against human NCI-H522 cells assessed as cell growth at 50 uM by SRB assay; settings: read-out: Activity
# SK-OV-3 [4] = test: Antiproliferative activity against human SKOV3 cells assessed as cell growth at 5 uM by SRB assay; settings: read-out: Activity
# A498 [5] = test: Antiproliferative activity against human A498 cells assessed as cell growth at […] by SRB assay; settings: read-out: Activity
# SN12C = test: Antiproliferative activity against human SN12C cells by SRB assay
# HCT-116 = test: Antiproliferative activity against human HCT116 cells by SRB assay
# 786-0 = test: Antiproliferative activity against human 786-0 cells assessed as cell growth at 5 uM by SRB assay; settings: read-out: Activity
# HOP-92 = test: Antiproliferative activity against human HOP92 cells by SRB assay
# SF-268 [6] = test: Antiproliferative activity against human SF268 cells assessed as cell growth at 50 uM by SRB assay; settings: read-out: Activity
# K562 = test: Antiproliferative activity against human K562 cells assessed as cell growth at 5 uM by SRB assay; settings: read-out: Activity
# CAKI-1 = test: Antiproliferative activity against human Caki1 cells assessed as cell growth at 50 uM by SRB assay; settings: read-out: Activity
# SW-620 = test: Antiproliferative activity against human SW620 cells assessed as cell growth at 5 mM by SRB assay; settings: read-out: Activity
# SF-268 [7] = test: Antiproliferative activity against human SF268 cells assessed as cell growth at 5 uM by SRB assay; settings: read-out: Activity
# Malme-3M = test: Antiproliferative activity against human MALME-3M cells by SRB assay
# U-251 = test: Antiproliferative activity against human U251 cells assessed as cell growth at 50 uM by SRB assay; settings: read-out: Activity
# OVCAR-3 [8] = test: Antiproliferative activity against human OVCAR-3 cells assessed as cell growth at 5 uM by SRB assay; settings: read-out: Activity
# TK-10 = test: Antiproliferative activity against human TK10 cells by SRB assay
# SF-539 = test: Antiproliferative activity against human SF539 cells assessed as cell growth at 5 uM by SRB assay; settings: read-out: Activity
# A549 = test: Antiproliferative activity against human A549 cells assessed as cell growth at 0.5 uM by SRB assay; settings: read-out: Activity
# DU-145 [9] = test: Antiproliferative activity against human DU145 cells assessed as cell growth at 50 uM by SRB assay; settings: read-out: Activity
# LOX IMVI = test: Antiproliferative activity against human LOXIMVI cells assessed as cell growth at 50 uM by SRB assay; settings: read-out: Activity
# DU-145 [10] = test: Antiproliferative activity against human DU145 cells by SRB assay
# SF-295 = test: Antiproliferative activity against human SF295 cells by SRB assay
# NCI-H23 = test: Antiproliferative activity against human NCI-H23 cells assessed as cell growth at 500 uM by SRB assay; settings: read-out: Activity
# SK-MEL-5 = test: Antiproliferative activity against human SK-MEL-5 cells assessed as cell growth at 5 mM by SRB assay; settings: read-out: Activity
# SK-OV-3 [11] = test: Antiproliferative activity against human SKOV3 cells assessed as cell growth at 0.5 uM by SRB assay; settings: read-out: Activity
# HT-29 = test: Antiproliferative activity against human HT-29 cells assessed as cell growth at 0.5 uM by SRB assay; settings: read-out: Activity
# IGROV-1 = test: Antiproliferative activity against human IGROV1 cells assessed as cell growth at 500 uM by SRB assay; settings: read-out: Activity
# EKVX [12] = test: Antiproliferative activity against human EKVX cells by SRB assay
# HCC 2998 = test: Antiproliferative activity against human HCC2998 cells assessed as cell growth at 5 uM by SRB assay; settings: read-out: Activity
# NCI-H322M = test: Antiproliferative activity against human NCI-H322M cells assessed as cell growth at 5 uM by SRB assay; settings: read-out: Activity
# A498 [13] = test: Antiproliferative activity against human A498 cells assessed as cell growth at 50 uM by SRB assay; settings: read-out: Activity
# [14] = Antiproliferative activity against human […] cells assessed as cell growth at 500 uM by SRB assay; settings: read-out: Activity
# UO-31 = test: Antiproliferative activity against human UO31 cells assessed as cell growth at 5 uM by SRB assay; settings: read-out: Activity
# [15] = read-out: LC50 (the source's name)
# [16] = read-out: pLC50 (the source's name) (converted)
compound,measurement,setting,value
O=C(/C=C/c1ccc(O)c(O)c1)OCCc1ccc(O)c(O)c1,growth at 0.5 µM,MOLT-4,101%
same,growth at 5 µM,RXF 393,84%
same,GI50,OVCAR-3 [1]; read-out: GI50,5.17 µM
same,CC50,OVCAR-3 [1]; [15],> 50 µM
same,TGI,OVCAR-3 [1]; read-out: TGI,> 50 µM
same,GI50,OVCAR-3 [1]; read-out: pGI50 (converted),5.13 µM
same,CC50,OVCAR-3 [1]; [16],> 50.1 µM
same,TGI,OVCAR-3 [1]; read-out: pTGI,> 50.1 µM
same,GI50,CCRF-CEM,750 nM
same,CC50,CCRF-CEM; [15],> 50 µM
same,TGI,CCRF-CEM; read-out: TGI,5.33 µM
same,CC50,CCRF-CEM; [16],> 50.1 µM
same,TGI,CCRF-CEM; read-out: pTGI (converted),5.37 µM
same,growth at 5 µM,EKVX [2],84%
same,GI50,A498 [3]; read-out: GI50,8.05 µM
same,CC50,A498 [3]; [15],> 50 µM
same,TGI,A498 [3]; read-out: TGI,36.1 µM
same,GI50,A498 [3]; read-out: pGI50 (converted),8.13 µM
same,CC50,A498 [3]; [16],> 50.1 µM
same,TGI,A498 [3]; read-out: pTGI (converted),36.3 µM
same,growth at 50 µM,NCI-H522,77%
same,growth at 5 µM,SK-OV-3 [4],96%
same,growth,A498 [5],-11%
same,GI50,SN12C; read-out: GI50,9.09 µM
same,CC50,SN12C; [15],> 50 µM
same,TGI,SN12C; read-out: TGI,> 50 µM
same,GI50,SN12C; read-out: pGI50 (converted),9.12 µM
same,CC50,SN12C; [16],> 50.1 µM
same,TGI,SN12C; read-out: pTGI,> 50.1 µM
same,GI50,HCT-116; read-out: GI50,11.2 µM
same,CC50,HCT-116; [15],> 50 µM
same,TGI,HCT-116; read-out: TGI,> 50 µM
same,GI50,HCT-116; read-out: pGI50 (converted),11.2 µM
same,CC50,HCT-116; [16],> 50.1 µM
same,TGI,HCT-116; read-out: pTGI,> 50.1 µM
same,growth at 5 µM,786-0,98%
same,GI50,HOP-92; read-out: GI50,790 nM
same,CC50,HOP-92; [15],> 50 µM
same,TGI,HOP-92; read-out: TGI,16.8 µM
same,GI50,HOP-92; read-out: pGI50 (converted),794 nM
same,CC50,HOP-92; [16],> 50.1 µM
same,TGI,HOP-92; read-out: pTGI (converted),17 µM
same,growth at 50 µM,SF-268 [6],85%
same,growth at 5 µM,K562,95%
same,growth at 50 µM,CAKI-1,88%
same,growth at 5000 µM,SW-620,19%
same,growth at 5 µM,SF-268 [7],91%
same,GI50,Malme-3M; read-out: GI50,18.6 µM
same,CC50,Malme-3M; [15],> 50 µM
same,TGI,Malme-3M; read-out: TGI,> 50 µM
same,GI50,Malme-3M; read-out: pGI50 (converted),18.6 µM
same,CC50,Malme-3M; [16],> 50.1 µM
same,TGI,Malme-3M; read-out: pTGI,> 50.1 µM
same,growth at 50 µM,U-251,98%
same,growth at 5 µM,OVCAR-3 [8],99%
same,GI50,TK-10; read-out: GI50,28.1 µM
same,CC50,TK-10; [15],> 50 µM
same,TGI,TK-10; read-out: TGI,> 50 µM
same,GI50,TK-10; read-out: pGI50 (converted),28.2 µM
same,CC50,TK-10; [16],> 50.1 µM
same,TGI,TK-10; read-out: pTGI,> 50.1 µM
same,growth at 5 µM,SF-539,81%
same,growth at 0.5 µM,A549,105%
same,growth at 50 µM,DU-145 [9],100%
same,growth at 50 µM,LOX IMVI,98%
same,GI50,DU-145 [10]; read-out: GI50,9.75 µM
same,CC50,DU-145 [10]; [15],> 50 µM
same,GI50,DU-145 [10]; read-out: pGI50 (converted),9.77 µM
same,CC50,DU-145 [10]; [16],> 50.1 µM
same,TGI,DU-145 [10]; read-out: pTGI (converted),30.2 µM
same,GI50,SF-295; read-out: GI50,16.1 µM
same,CC50,SF-295; [15],> 50 µM
same,TGI,SF-295; read-out: TGI,> 50 µM
same,GI50,SF-295; read-out: pGI50 (converted),16.2 µM
same,CC50,SF-295; [16],> 50.1 µM
same,TGI,SF-295; read-out: pTGI,> 50.1 µM
same,growth at 500 µM,NCI-H23,78%
same,growth at 5000 µM,SK-MEL-5,-1%
same,growth at 0.5 µM,SK-OV-3 [11],99%
same,growth at 0.5 µM,HT-29,104%
same,growth at 500 µM,IGROV-1,35%
same,GI50,EKVX [12]; read-out: GI50,14.9 µM
same,CC50,EKVX [12]; [15],> 50 µM
same,TGI,EKVX [12]; read-out: TGI,> 50 µM
same,GI50,EKVX [12]; read-out: pGI50 (converted),14.8 µM
same,CC50,EKVX [12]; [16],> 50.1 µM
same,TGI,EKVX [12]; read-out: pTGI,> 50.1 µM
same,growth at 5 µM,HCC 2998,107%
same,growth at 5 µM,NCI-H322M,92%
same,growth at 50 µM,A498 [13],95%
same,growth at 500 µM,[14],11%
same,growth at 5 µM,UO-31,93%
